This note sets out measurements from US8642585B2, “Indanyloxydihydrobenzofuranylacetic acids” (Boehringer Ingelheim International GmbH, priority 2012, dated 2014).

The target in assay [1] is T1, human GPR40 receptor (Homo sapiens, UniProt O14842). In words: Assay I: IP1 accumulation (IPOne HTRF) in 1321N1 cells stably expressing human GPR40. Format: cell-based. As to conditions: 1321N1 cells expressing human GPR40, stimulation 1 hour at 37° C., 10% CO2, final LiCl 50 mM. The protocol:
IP1 accumulation measurements using the IPOne assay system—1321N1 cells stably expressing human GPR40 receptor (Euroscreen, Belgium) are seeded 24 h before the assay in black clear-bottom collagen-coated 384-well plates in culture medium containing 10% FCS, 1% Na-Pyruvate and 400 μg/mL G418. IP1 is assayed according to the Manufacturers description (Cisbio Bioassays, France). In brief, the assay is started by substitution of the culture medium by stimulation buffer (Hepes 10 mM, CaCl2 1 mM, MgCl2 0.5 mM, KCl 4.2 mM, NaCl 146 mM and glucose 5.5 mM, pH 7.4) without LiCl. Cells are stimulated for 1 hour at 37° C., 10% CO2 by addition of the compounds that are diluted in stimulation buffer containing LiCl yielding a final LiCl concentration of 50 mM. Assays are stopped by adding HTRF-conjugates (IP1-d2 and Anti-IP1 cryptate Tb) and lysis buffer, provided by the manufacturer. After an incubation time of 1 hour at room temperature plates are measured using an EnVision™, Perkin Elmer. The obtained fluorescence ratios at 665/615 nM are then used to calculate the pEC50 values using GraphPad Prism 5 (Graphpad Software Inc, USA) by interpolation using an IP1 reference curve and subsequent sigmoidal curve fitting allowing for a variable hill slope.
A general note: TR-FRET usually uses a lanthanide donor and a delayed reading to cut background.

Assay [2] addresses T1, human GPR40 receptor. Description: Assay II: IP1 accumulation (IPOne HTRF) in 1321N1 cells stably expressing human GPR40. Format: cell-based. As to conditions: 1321N1 cells expressing human GPR40, stimulation 1 h at 37° C., 5% CO2, LiCl 50 mM. In a few lines: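 1321N1 cells stably expressing human GPR40, seeded 24 h earlier, were stimulated with compound for 1 h at 37 °C in LiCl (50 mM) buffer, pH 7.4. IP1 measured by HTRF (665/615 ratio) after lysis and 1 h room temperature; pEC50 via IP1 reference curve and variable-slope sigmoidal fit.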

As usually defined, the EC50 is the concentration at which the effect is half-maximal. A lower EC50 goes with greater potency.

T1 sequence (O14842 whole entry): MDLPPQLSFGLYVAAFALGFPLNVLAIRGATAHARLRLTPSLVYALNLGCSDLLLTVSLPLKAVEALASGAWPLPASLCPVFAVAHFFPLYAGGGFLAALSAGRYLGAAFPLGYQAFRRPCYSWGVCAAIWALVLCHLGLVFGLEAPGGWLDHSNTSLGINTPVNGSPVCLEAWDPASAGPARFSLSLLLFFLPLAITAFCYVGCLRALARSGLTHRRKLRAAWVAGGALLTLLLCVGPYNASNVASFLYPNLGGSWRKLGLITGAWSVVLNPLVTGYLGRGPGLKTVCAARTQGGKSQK

`Cc1cc(OCC2(C)COC2)cc(C)c1-c1ccc(F)c2c1CC[C@H]2Oc1ccc2c(c1)OC[C@H]2CC(=O)O` [Example 1, 2-((S)-6-((R)-4-(2,6-dimethyl-4-((3-methyloxetan-3-yl)methoxy)phenyl)-7-fluoro-2,3-dihydro-1H-inden-1-yloxy)-2,3-dihydrobenzofuran-3-yl)acetic acid] showed an EC50 on human GPR40 receptor [1] of 4 nM.

For the molecule `Cc1cc(OCC2CCOC2)cc(C)c1-c1ccc(F)c2c1CC[C@H]2Oc1ccc2c(c1)OC[C@H]2CC(=O)O` (stereo partly drawn) [Example 2, 2-((3S)-6-((1R)-4-(2,6-dimethyl-4-((tetrahydrofuran-3-yl)methoxy)phenyl)-7-fluoro-2,3-dihydro-1H-inden-1-yloxy)-2,3-dihydrobenzofuran-3-yl)acetic acid], on human GPR40 receptor [1], it took 5 nM to reach a half-maximal effect (EC50).

As for `Cc1cc(OCC2CCCO2)cc(C)c1-c1ccc(F)c2c1CC[C@H]2Oc1ccc2c(c1)OC[C@H]2CC(=O)O` (stereo partly drawn) [Example 3, 2-((3S)-6-((1R)-4-(2,6-dimethyl-4-((tetrahydrofuran-2-yl)methoxy)phenyl)-7-fluoro-2,3-dihydro-1H-inden-1-yloxy)-2,3-dihydrobenzofuran-3-yl)acetic acid], on human GPR40 receptor [1], the EC50 stood at 6 nM.

On human GPR40 receptor [1], `Cc1cc(OCCC(C)(C)O)cc(C)c1-c1ccc(F)c2c1CC[C@H]2Oc1ccc2c(c1)OC[C@H]2CC(=O)O` [Example 4, 2-((S)-6-((R)-7-Fluoro-4-(4-(3-hydroxy-3-methylbutoxy)-2,6-dimethylphenyl)-2,3-dihydro-1H-inden-1-yloxy)-2,3-dihydrobenzofuran-3-yl)acetic acid] came in with an EC50 of 5 nM.

`Cc1cc(OCC[S+](C)[O-])cc(C)c1-c1ccc(F)c2c1CC[C@H]2Oc1ccc2c(c1)OC[C@H]2CC(=O)O` (stereo partly drawn) [Example 5, 2-((3S)-6-((1R)-4-(2,6-Dimethyl-4-(2-(methylsulfinyl)ethoxy)phenyl)-7-fluoro-2,3-dihydro-1H-inden-1-yloxy)-2,3-dihydrobenzofuran-3-yl)acetic acid] yielded an EC50 at human GPR40 receptor [1] of 19 nM.

`Cc1cc(OCCS(C)(=O)=O)cc(C)c1-c1ccc(F)c2c1CC[C@H]2Oc1ccc2c(c1)OC[C@H]2CC(=O)O` [Example 6, 2-((S)-6-((R)-4-(2,6-Dimethyl-4-(2-(methylsulfonyl)ethoxy)phenyl)-7-fluoro-2,3-dihydro-1H-inden-1-yloxy)-2,3-dihydrobenzofuran-3-yl)acetic acid]: the EC50 on human GPR40 receptor [1] is 22 nM.

Regarding `Cc1cc(OC2CCOCC2)cc(C)c1-c1ccc(F)c2c1CC[C@H]2Oc1ccc2c(c1)OC[C@H]2CC(=O)O` [Example 7, 2-((S)-6-((R)-4-(2,6-Dimethyl-4-(tetrahydro-2H-pyran-4-yloxy)phenyl)-7-fluoro-2,3-dihydro-1H-inden-1-yloxy)-2,3-dihydrobenzofuran-3-yl)acetic acid], on human GPR40 receptor [1], it took 6 nM to reach a half-maximal effect (EC50).

As for `Cc1cc(O[C@H]2CCOC2)cc(C)c1-c1ccc(F)c2c1CC[C@H]2Oc1ccc2c(c1)OC[C@H]2CC(=O)O` [Example 8, 2-((S)-6-((R)-4-(2,6-Dimethyl-4-((S)-tetrahydrofuran-3-yloxy)phenyl)-7-fluoro-2,3-dihydro-1H-inden-1-yloxy)-2,3-dihydrobenzofuran-3-yl)acetic acid], at human GPR40 receptor [1], the EC50 is 4 nM.

`Cc1cc(O[C@@H]2CCOC2)cc(C)c1-c1ccc(F)c2c1CC[C@H]2Oc1ccc2c(c1)OC[C@H]2CC(=O)O` [Example 9, 2-((S)-6-((R)-4-(2,6-Dimethyl-4-((R)-tetrahydrofuran-3-yloxy)phenyl)-7-fluoro-2,3-dihydro-1H-inden-1-yloxy)-2,3-dihydrobenzofuran-3-yl)acetic acid] returned an EC50 on human GPR40 receptor [1] of 9 nM.

At human GPR40 receptor [1], `Cc1cc(OCC(C)(C)O)cc(C)c1-c1ccc(F)c2c1CC[C@H]2Oc1ccc2c(c1)OC[C@H]2CC(=O)O` [Example 10, 2-((S)-6-((R)-7-Fluoro-4-(4-(2-hydroxy-2-methylpropoxy)-2,6-dimethylphenyl)-2,3-dihydro-1H-inden-1-yloxy)-2,3-dihydrobenzofuran-3-yl)acetic acid] showed an EC50 of 9 nM.

Consider `Cc1cc(OC2CCC(O)C2)cc(C)c1-c1ccc(F)c2c1CC[C@H]2Oc1ccc2c(c1)OC[C@H]2CC(=O)O` (stereo partly drawn) [Example 11, 2-((3S)-6-((1R)-7-Fluoro-4-(4-(3-hydroxycyclopentyloxy)-2,6-dimethylphenyl)-2,3-dihydro-1H-inden-1-yloxy)-2,3-dihydrobenzofuran-3-yl)acetic acid], for which, at human GPR40 receptor [1], the 50% effective concentration (EC50) turned out to be 5 nM.

`CNC(=O)COc1cc(C)c(-c2ccc(F)c3c2CC[C@H]3Oc2ccc3c(c2)OC[C@H]3CC(=O)O)c(C)c1` [Example 12, 2-((S)-6-((R)-4-(2,6-Dimethyl-4-(2-(methylamino)-2-oxoethoxy)phenyl)-7-fluoro-2,3-dihydro-1H-inden-1-yloxy)-2,3-dihydrobenzofuran-3-yl)acetic acid] came in with an EC50 at human GPR40 receptor [1] of 12 nM.

`Cc1cc(OCC(=O)N(C)C)cc(C)c1-c1ccc(F)c2c1CC[C@H]2Oc1ccc2c(c1)OC[C@H]2CC(=O)O` [Example 13, 2-((S)-6-((R)-4-(4-(2-(Dimethylamino)-2-oxoethoxy)-2,6-dimethylphenyl)-7-fluoro-2,3-dihydro-1H-inden-1-yloxy)-2,3-dihydrobenzofuran-3-yl)acetic acid] had a 50% effective concentration (EC50) on human GPR40 receptor [1] of 63 nM.

Molecule `Cc1cc(OCC(N)=O)cc(C)c1-c1ccc(F)c2c1CC[C@H]2Oc1ccc2c(c1)OC[C@H]2CC(=O)O` [Example 14, 2-((S)-6-((R)-4-(4-(2-Amino-2-oxoethoxy)-2,6-dimethylphenyl)-7-fluoro-2,3-dihydro-1H-inden-1-yloxy)-2,3-dihydrobenzofuran-3-yl)acetic acid] registered an EC50 on human GPR40 receptor [1] of 14 nM.

The molecule `Cc1cc(OCC(C)(C)CO)cc(C)c1-c1ccc(F)c2c1CC[C@H]2Oc1ccc2c(c1)OC[C@H]2CC(=O)O` [Example 15, 2-((S)-6-((R)-7-Fluoro-4-(4-(3-hydroxy-2,2-dimethylpropoxy)-2,6-dimethylphenyl)-2,3-dihydro-1H-inden-1-yloxy)-2,3-dihydrobenzofuran-3-yl)acetic acid] gave a half-maximal effective concentration (EC50) on human GPR40 receptor [1] of 5 nM.

On human GPR40 receptor [1], `COCC(C)(C)COc1cc(C)c(-c2ccc(F)c3c2CC[C@H]3Oc2ccc3c(c2)OC[C@H]3CC(=O)O)c(C)c1` [Example 16, 2-((S)-6-((R)-7-Fluoro-4-(4-(3-methoxy-2,2-dimethylpropoxy)-2,6-dimethylphenyl)-2,3-dihydro-1H-inden-1-yloxy)-2,3-dihydrobenzofuran-3-yl)acetic acid] returned an EC50 of 5 nM.

As for `Cc1cc(OCC2CCOCC2)cc(C)c1-c1ccc(F)c2c1CC[C@H]2Oc1ccc2c(c1)OC[C@H]2CC(=O)O` [Example 150, 2-((S)-6-((R)-4-(2,6-dimethyl-4-((tetrahydro-2H-pyran-4-yl)methoxy)phenyl)-7-fluoro-2,3-dihydro-1H-inden-1-yloxy)-2,3-dihydrobenzofuran-3-yl)acetic acid], the 50% effective concentration (EC50) on human GPR40 receptor [2] was found to be 6 nM.

`Cc1cc(OCc2cnn(C)c2)cc(C)c1-c1ccc(F)c2c1CC[C@H]2Oc1ccc2c(c1)OC[C@H]2CC(=O)O` [Example 152, 2-((S)-6-((R)-4-(2,6-dimethyl-4-((1-methyl-1H-pyrazol-4-yl)methoxy)phenyl)-7-fluoro-2,3-dihydro-1H-inden-1-yloxy)-2,3-dihydrobenzofuran-3-yl)acetic acid] came in with an EC50 on human GPR40 receptor [2] of 19 nM.

As for “((S)-6-{(R)-4-[4-((R)-1,1-Dioxo- tetrahydro-1-thiophen-3- ylmethoxy)-2,6-dimethyl- phenyl]-7-fluoro-indan-1- yloxy}-2,3-dihydro-benzofuran- 3-yl)-acetic acid [Example 47]”, the midpoint of the response on human GPR40 receptor [2], the EC50, lay at 8 nM.
